Assay: Adverse events during switch from oral to i.v. selexipag and back in subjects with stable PAH (Phase 3 study)
Assay type: in vivo, human
Details: for AE incidence: Blindness unilateral / AE incidence: Chromaturia / AE incidence: Cough / AE incidence: Dyspnoea / AE incidence: Flushing / AE incidence: Headache / AE incidence: Hypokalaemia / AE incidence: Nasopharyngitis / AE incidence: Nausea / AE incidence: Oedema peripheral / AE incidence: Rhegmatogenous retinal detachment / AE incidence: Right ventricular failure / AE incidence: Upper respiratory tract infection / Subjects with at least one AE: Period 3 + follow-up (oral selexipag, up to 37 days)
Procedure: This was a prospective, multicenter, open-label, single-sequence, cross-over, Phase 3 study. Based on the dose of selexipag received at study entry, subjects were allocated to one of the following groups, selexipag 200-1000 μg b.i.d. or selexipag 1200-1600 μg b.i.d. See, FIG. 1. The study comprised the following periods:
(ii) Treatment and observation period: The treatment and observation period included the following consecutive periods: • Period 1 included oral selexipag pre-treatment period for 1 day, in-hospital. This period started with intake of the morning dose of oral selexipag on Day 1 at Visit 2 and ended the following day, before initiation of the first infusion of i.v. selexipag. • Period 2 included i.v. selexipag treatment period for 36 hours [3 infusions], in-hospital. This period started in the morning of Day 2 at Visit 2 with the start of the first infusion of i.v. selexipag and ended in the evening of Day 3 at Visit 2 before the evening administration of oral selexipag. Administration of oral selexipag was interrupted during the i.v. selexipag treatment period. • Period 3 included oral selexipag post-treatment period for 7 to 11 day. This period started in the evening of Day 3 at Visit 2 with the administration of oral selexipag and ended 7-11 days later, at Visit 3.
The endpoints analyzed for Period 1, Period 2, and Period 3 and follow-up period combined included discontinuations due to prostacyclin-associated AEs, adverse events (AEs) and serious adverse events (SAEs), prostacyclin-associated AEs, AEs related to injection site reactions, and PAH-related AEs.
The endpoints analyzed for (i) Period 1, Period 2, and Period 3 and follow-up period combined (ii) Period 1 and Period 2 combined, and (iii) Period 2 and Period 3 combined included discontinuations due to prostacyclin-associated AEs, discontinuations due to any AEs, AEs and SAEs, prostacyclin-associated AEs, PAH-related AEs, change from baseline in vital signs (systolic blood pressure [SBP], diastolic blood pressure [DBP], and pulse rate) and body weight, ECG abnormalities, marked laboratory abnormalities, and change from baseline in WHO FC.
The statistical analysis was mainly descriptive, without formal hypothesis testing. Exact Pearson-Clopper CIs for the incidence of AEs were computed.

[1] = Period 2 (intravenous selexipag treatment), high dose cohort (1200-1600 μg), N = 12
[2] = Period 2 (intravenous selexipag treatment), low dose cohort (200-1000 μg), N = 8
[3] = Period 2 (intravenous selexipag treatment), total, N = 20
[4] = Period 2 (iv selexipag), total, N = 20
[5] = Period 3 (oral selexipag), high dose cohort (1200-1600 μg), N = 12
[6] = Period 3 (oral selexipag), low dose cohort (200-1000 μg), N = 8
[7] = Period 3 (oral selexipag), total, N = 20
[8] = Period 3 + Follow-up (oral selexipag), total, N = 20
[9] = high dose cohort (1200-1600 μg), N = 12
[10] = low dose cohort (200-1000 μg), N = 8

CC(C)N(CCCCOCC(=O)NS(C)(=O)=O)c1cnc(-c2ccccc2)c(-c2ccccc2)n1 [selexipag, 2-{4-[(5,6-diphenylpyrazin-2-yl)(propan-2-yl)amino]butoxy}-N-(methanesulfonyl)acetamide]
Prostacyclin-associated AE incidence: Vomiting [1]: 1 n (%) | Subjects with at least one prostacyclin-associated AE [1]: 6 n (%) | Prostacyclin-associated AE incidence: Diarrhoea [2]: 0 n (%) | Prostacyclin-associated AE incidence: Flushing [2]: 0 n (%) | Prostacyclin-associated AE incidence: Headache [2]: 1 (12.5) n (%) | Prostacyclin-associated AE incidence: Myalgia [2]: 0 n (%) | Prostacyclin-associated AE incidence: Nausea [2]: 0 n (%) | Prostacyclin-associated AE incidence: Pain in jaw [2]: 0 n (%) | Prostacyclin-associated AE incidence: Tension headache [2]: 0 n (%) | Prostacyclin-associated AE incidence: Vomiting [2]: 0 n (%) | Subjects with at least one prostacyclin-associated AE [2]: 1 (12.5) n (%) | Prostacyclin-associated AE incidence: Diarrhoea [3]: 1 n (%) | Prostacyclin-associated AE incidence: Flushing [3]: 1 n (%) | Prostacyclin-associated AE incidence: Headache [3]: 4 n (%) | Prostacyclin-associated AE incidence: Myalgia [3]: 1 n (%) | Prostacyclin-associated AE incidence: Nausea [3]: 1 n (%) | Prostacyclin-associated AE incidence: Pain in jaw [3]: 1 n (%) | Prostacyclin-associated AE incidence: Tension headache [3]: 1 n (%) | Prostacyclin-associated AE incidence: Vomiting [3]: 1 n (%) | Deaths [4]: 0 n (%) | Discontinuations due to prostacyclin-associated AEs [4]: 0 n (%) | Number of subjects with at least one Injection site reaction-AE (ISR-AE) [4]: 2 n (%) | Number of subjects with at least one Prostacyclin-associated AEs [4]: 7 n (%) | Number of subjects with at least one Serious adverse events (SAEs) [4]: 0 n (%) | SAE incidence: Blindness unilateral [4]: 0 n (%) | SAE incidence: Rhegmatogenous retinal detachment [4]: 0 n (%) | SAE incidence: Right ventricular failure [4]: 0 n (%) | PAH-related AE: peripheral edema (Period 3): 2 subjects | PAH-related AE: right ventricular failure in the context of respiratory tract infection (Period 3): 1 subject | subjects with PAH-related AEs (Period 3): 3 subjects | SAE incidence: Right ventricular failure (Period 3 (oral selexipag) + Follow-up, total, N = 20): 1 n (%) | Prostacyclin-associated AE incidence: Flushing [5]: 1 n (%) | Prostacyclin-associated AE incidence: Headache [5]: 1 n (%) | Prostacyclin-associated AE incidence: Nausea [5]: 1 n (%) | Prostacyclin-associated AE incidence: Flushing [6]: 0 n (%) | Prostacyclin-associated AE incidence: Headache [6]: 0 n (%) | Prostacyclin-associated AE incidence: Nausea [6]: 0 n (%) | Prostacyclin-associated AE incidence: Flushing [7]: 1 n (%) | Prostacyclin-associated AE incidence: Headache [7]: 1 n (%) | Prostacyclin-associated AE incidence: Nausea [7]: 1 n (%) | Deaths [8]: 0 n (%) | Discontinuations due to prostacyclin-associated AEs [8]: 0 n (%) | Number of subjects with at least one Injection site reaction-AE (ISR-AE) [8]: 0 n (%) | Number of subjects with at least one Prostacyclin-associated AEs [8]: 1 n (%) | Number of subjects with at least one Serious adverse events (SAEs) [8]: 2 n (%) | AE incidence: Blindness unilateral [9]: 1 n (%) | AE incidence: Chromaturia [9]: 1 n (%) | AE incidence: Cough [9]: 1 n (%) | AE incidence: Dyspnoea [9]: 1 n (%) | AE incidence: Flushing [9]: 1 n (%) | AE incidence: Headache [9]: 1 n (%) | AE incidence: Hypokalaemia [9]: 1 n (%) | AE incidence: Nasopharyngitis [9]: 0 n (%) | AE incidence: Nausea [9]: 1 n (%) | AE incidence: Oedema peripheral [9]: 1 n (%) | AE incidence: Rhegmatogenous retinal detachment [9]: 1 n (%) | AE incidence: Right ventricular failure [9]: 1 n (%) | AE incidence: Upper respiratory tract infection [9]: 1 n (%) | Subjects with at least one AE [9]: 6 n (%) | AE incidence: Blindness unilateral [10]: 0 n (%) | AE incidence: Chromaturia [10]: 0 n (%) | AE incidence: Cough [10]: 0 n (%) | AE incidence: Dyspnoea [10]: 0 n (%) | AE incidence: Flushing [10]: 0 n (%) | AE incidence: Headache [10]: 0 n (%) | AE incidence: Hypokalaemia [10]: 0 n (%) | AE incidence: Nasopharyngitis [10]: 1 (12.5) n (%) | AE incidence: Nausea [10]: 0 n (%) | AE incidence: Oedema peripheral [10]: 1 (12.5) n (%) | AE incidence: Rhegmatogenous retinal detachment [10]: 0 n (%) | AE incidence: Right ventricular failure [10]: 0 n (%) | AE incidence: Upper respiratory tract infection [10]: 0 n (%) | Subjects with at least one AE [10]: 2 (25.0) n (%) | AE incidence: Blindness unilateral (total, N = 20): 1 n (%) | AE incidence: Chromaturia (total, N = 20): 1 n (%) | AE incidence: Cough (total, N = 20): 1 n (%) | AE incidence: Dyspnoea (total, N = 20): 1 n (%) | AE incidence: Flushing (total, N = 20): 1 n (%) | AE incidence: Headache (total, N = 20): 1 n (%) | AE incidence: Hypokalaemia (total, N = 20): 1 n (%) | AE incidence: Nasopharyngitis (total, N = 20): 1 n (%) | AE incidence: Nausea (total, N = 20): 1 n (%) | AE incidence: Oedema peripheral (total, N = 20): 2 n (%) | AE incidence: Rhegmatogenous retinal detachment (total, N = 20): 1 n (%) | AE incidence: Right ventricular failure (total, N = 20): 1 n (%) | AE incidence: Upper respiratory tract infection (total, N = 20): 1 n (%) | Subjects with at least one AE (total, N = 20): 8 n (%) | PAH-related AEs (Periods 1 and 2): No PAH-related AEs | AE profile during treatment with i.v. selexipag (conclusion): consistent with the known safety profile of selexipag | tolerability of the switch from oral selexipag (Period 1) to i.v. selexipag (Period 2) and back to oral selexipag (Period 3) (conclusion): well tolerated | Deaths (whole study): No subject died | discontinued study treatment due to an AE (whole study): No subject | prostacyclin-associated AEs reported as severe, serious, or resulting in discontinuation of study treatment (whole study): None
